The values that follow come from patent publication US8937187B2, “Method for depigmenting keratin materials using resorcinol derivatives” (L'Oreal, priority 2010, dated 2015).

Molecules are shown by their SMILES.

For series [1], the system named is co-culture of keratinocytes and melanocytes. The series is described as follows: Inhibitory activity on melanin synthesis (constitutive melanogenesis), ratio of thiouracil to leucine incorporation. The class given is cell-based. Conditions: for IC50: thiouracil/leucine incorporation ratio relative to 100% of the control, read-out: IC50 (concentration for which 50% of the synthesis of melanin is inhibited). The procedure:
The modulatory effect of compound 1 on melanogenesis was measured by the method described in patent FR-A-2 734 825 and also in the article by R. Schmidt, P. Krien and M. Régnier, Anal. Biochem., 235(2), 113-18, 1996. This test is carried out on a co-culture of keratinocytes and melanocytes.
For the compound tested, the following parameters were ascertained: • the cytotoxicity, by estimation of the incorporation of leucine, • the inhibitory activity on melanin synthesis, by estimating the ratio of incorporation of thiouracil to the incorporation of leucine, relative to 100% of the control (the control corresponds to the test carried out without compound tested). The IC50 values (concentration for which 50% of the synthesis of melanin is inhibited) were ascertained.
The test was also carried out with arbutin and kojic acid, which are known depigmenting compounds.

For series [2] the test system is unchanged. The series is described as follows: Cytotoxicity by estimation of the incorporation of leucine. The class given is cell-based. The method, then:
The modulatory effect of compound 1 on melanogenesis was measured by the method described in patent FR-[…]. Schmidt, P. […], Anal. Biochem., 235(2), 113-18, 1996. This test is carried out on a co-culture of keratinocytes and melanocytes. […] The test was also carried out with arbutin and kojic acid, which are known depigmenting compounds.

On to `O=C1CC(=O)C(Cc2ccc(O)cc2O)C1` (centres unmarked), for which the IC50 in series [1] worked out at 52 µM. Also, the Cytotoxicity on co-culture result in series [2] is reported as “Non-cytotoxic”.

As for `OC[C@H]1O[C@@H](Oc2ccc(O)cc2)[C@H](O)[C@@H](O)[C@@H]1O` [Arbutin, reference compound], the IC50 in series [1] is over 500 µM. For the same compound, the Cytotoxicity on co-culture result in series [2] is “Non-cytotoxic”.

As for `O=C1CC(Cc2ccc(O)cc2O)C(=O)N1` (centres unmarked) [Compound 1, 3-(2,4-dihydroxybenzyl)pyrrolidine-2,5-dione], the “efficacy in inhibiting melanogenesis compared with arbutin and kojic acid” value in series [1] was “more effective than arbutin and kojic acid”.

On to `CCCCN1C(=O)CC(Cc2ccc(O)cc2O)C1=O` (centres unmarked) [Compound 7, 3-(2,4-dihydroxybenzyl)-1-butylpyrrolidine-2,5-dione], for which the melting point fell in the range of 122 to 123 °C. Also, in series [1], the “efficacy in inhibiting melanogenesis compared with arbutin and kojic acid” value was “more effective than arbutin and kojic acid”.

As to `O=C1CC(Cc2ccc(O)cc2O)C(=O)N1CCO` (centres unmarked) [Compound 12, 3-(2,4-dihydroxybenzyl)-1-(2-hydroxyethyl)pyrrolidine-2,5-dione], the “efficacy in inhibiting melanogenesis compared with arbutin and kojic acid” value in series [1] was “more effective than arbutin and kojic acid”.

With `CCOC(=O)CN1C(=O)CC(Cc2ccc(O)cc2O)C1=O` (centres unmarked) [Compound 32, ethyl [3-(2,4-dihydroxybenzyl)-2,5-dioxopyrrolidin-1-yl]acetate], the “efficacy in inhibiting melanogenesis compared with arbutin and kojic acid” value in series [1] is “more effective than arbutin and kojic acid”.

On to `O=c1cc(CO)occ1O` [Kojic acid, reference compound], for which the IC50 in series [1] was over 500 µM. In addition, the Cytotoxicity on co-culture in series [2] was 100 µM.

For the compound `CCCCN1C(=O)CC(Cc2ccc(O)cc2O)C1=O` (centres unmarked) [drawing 126], in series [1], the IC50 is 8.3 µM. In series [2], the Cytotoxicity on co-culture entry is “Non-cytotoxic”.

Turning to `CCOC(=O)CN1C(=O)CC(Cc2ccc(O)cc2O)C1=O` (centres unmarked) [drawing 128], the IC50 in series [1] is 9.2 µM. For the same compound, the Cytotoxicity on co-culture result in series [2] is reported as “Non-cytotoxic”.

With `O=C1CC(Cc2ccc(O)cc2O)C(=O)N1CCO` (centres unmarked) [drawing 129], the IC50 in series [1] was 14.9 µM. The Cytotoxicity on co-culture entry in series [2] is “Non-cytotoxic”.
